Columns and labels:
humans = assay: Clinical study: vasodilator; assay type: in vivo, human
Excerpt: In the treatment of diseases associated with the blood circulation through the vessels.

mice [1] = assay: Asphyxiant anoxia (gallamine triiodoethylate); assay type: in vivo, mouse; details: i.p., curarizing agent
Experimental: Groups of 10 mice receive CRL 41 153 half an hour before the intraperitoneal administration of 32 mg/kg of gallamine triiodoethylate (reference curarizing agent).

[2] = tested on: gravid White New Zealand female rabbits; assay: Teratogenicity in gravid White New Zealand rabbits; assay type: in vivo, rabbit; details: day 5 to day 18 of gestation; for Affected foetuses, %: normal limit 1.5%
Procedure, shortened: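 Fetuses harvested by cesarean on gestation day 29 were scored for number and for any malformation (limb blockade, anury, tail or skull defects, exencephaly).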

mice [3] = assay: Overall behavior and reactivities in mice; assay type: in vivo, mouse; details: dose not stated
Experimental: (§1) In the neuropsychopharmacological study which follows, a solution of CRL 41 153 in distilled water (pH 1.5) was administered intraperitoneally in a volume of 20 ml/kg to male mice and 5 ml/kg to male rats.
(§2) Groups of three animals are observed before and then 0.25 hour, 0.50 hour, 1 hour, 2 hours, 3 hours and 24 hours after the administration of CRL 41 153.

mice [4] = assay: Interaction with barbital; assay type: in vivo, mouse; details: i.p., barbital 220 mg/kg
Experimental: Half an hour after the administration of CRL 41 153, groups of 10 mice receive an intraperitoneal injection of barbital (220 mg/kg).

mice [5] = assay: Interaction with oxotremorine; assay type: in vivo, mouse; details: i.p.
Experimental: CRL 41 153 is administered to groups of 6 mice 0.5 hour before the intraperitoneal injection of 0.5 mg/kg of oxotremorine.

mice [6] = assay: Behavioral despair; assay type: in vivo, mouse; details: forcibly immersed mice, i.p.
Excerpt: Half an hour after they have received CRL 41 153, groups of 6 mice are placed in a beaker filled with water to a height of 6 cm. The total period of immobility between the 2nd and 6th minutes following immersion is noted.

mice [7] = assay: Intergroup aggressiveness; assay type: in vivo, mouse; details: i.p.
Experimental: After they have stayed for 3 weeks in the two halves of a cage divided by an opaque partition, groups of 3 mice receive CRL 41 153. Half an hour later, the two groups from the same cage are brought together by removal of the partition, and the number of fights which occur in 10 minutes is noted.

mice [8] = assay: Spontaneous motility; assay type: in vivo, mouse; details: i.p.
Experimental: 0.5 hour after they have received CRL 41 153, the mice (6 per dose, 12 control animals) are placed in an actimeter, where their motility is recorded for 30 minutes.

mice [9] = assay: Four plate test, traction and electric shock; assay type: in vivo, mouse; details: i.p.
Experimental: The test is performed on groups of 10 mice 30 minutes after the administration of CRL 41 153.

dogs = assay: Cardiovascular study in anesthetized dogs; assay type: in vivo, dog
Experimental: Two dogs (average weight: 14.1 kg), anesthetized with nembutal, receive CRL 41 194 by intraduodenal administration at successive doses of 0.1 mg/kg, 0.5 mg/kg, 1 mg/kg, 2.5 mg/kg, 5 mg/kg and 10 mg/kg (in solution in physiological solvent).
The blood pressure, the heart rate, the blood flow through the femoral artery, the blood flow through the vertebral artery and the rectal temperature are measured. The coloration of the skin and the coloration of the bile, collected by catheterization of the bile duct after ligature of the cystic duct, are observed.
4 dogs (average weight: 14 kg), anesthetized with nembutal, receive CRL 41 221 by intraduodenal administration at successive doses of 0.1 mg/kg, 0.5 mg/kg, 1 mg/kg, 2.5 mg/kg, 5 mg/kg and 10 mg/kg. The blood pressure, the heart rate, the blood flow through the femoral artery, the blood flow through the vertebral artery and the rectal temperature are measured. The coloration of the skin is observed.

mice [10] = assay: Motility reduced by hypoxic aggression; assay type: in vivo, mouse; details: i.p.
Experimental: Half an hour after they have received CRL 41 153, the mice (10 per dose, 20 control animals) are subjected to acute hypobaric anoxia [pressure reduction of 600 mm Hg (i.e. about 8×10^4 Pa) in 90 seconds; release of vacuum in 45 seconds] and are then placed in an actimeter, where their motility is recorded for 10 minutes.

rats [11] = assay: Interaction with amphetamine; assay type: in vivo, rat; details: i.p.
Experimental: Amphetamine (2 mg/kg) is injected intraperitoneally into groups of 6 rats 30 minutes after the administration of CRL 41 153. […] 4 mg/kg and 16 mg/kg, CRL 41 153 potentiates the intensity and duration of the stereotypies induced by amphetamine.

mice [12] = assay: Motility reduced by habituation to the enclosure; assay type: in vivo, mouse; details: i.p.
Experimental: After they have stayed In the actimeters for 18 hours, (he mice (6 per dose, 12 control animals) receive CRL 41 153. They are immediately returned to their respective enclosures and, half an hour later, their motility is recorded for 30 minutes.

mice [13] = assay: Interaction with reserpine; assay type: in vivo, mouse; details: i.p.
Experimental: Four hours after the intraperitoneal injection of 2.5 mg/kg of reserpine, groups of 6 mice receive CRL 41 153.

CNS = assay: Neuropsychopharmacological profile as a whole; assay type: in vivo, mice and rats
Experimental: as §1

rats [14] = assay: Overall behavior and reactivities in rats; assay type: in vivo, rat; details: dose not stated
Experimental: as §1, §2

mice [15] = assay: Interaction with apomorphine in mice; assay type: in vivo, mouse; details: i.p.
Experimental: Groups of 6 mice receive CRL 41 153 0.5 hour before the subcutaneous injection of 1 or 16 mg/kg of apomorphine.

[16] = pH of solutions in distilled water; assay type: physicochemical
Experimental: The neuropsychopharmacological study was undertaken according to the procedures described above for CRL 41 153, CRL 41 213 being adminstered intraperitoneally, in solution in distilled water, in a volume of 20 ml/kg to male mice and a volume of 5 ml/kg to male rats, and the pH of the injected solution varying with the concentration of CRL 41 213 according to the data given in Table II below.

rats [17] = assay: Interaction with apomorphine in rats; assay type: in vivo, rat; details: i.p.
Experimental: CRL 41 153 is administered to groups of 6 rats 0.5 hour before the subcutaneous injection of 0.5 mg/kg of apomorphine.

## CCNC(C)C(=O)c1ccc(N)cc1 (stereo not drawn) [CRL 41 225]
humans
  Vasodilator in human clinical use: beneficial vasodilating properties from the clinical point of view
Mice [1]
  Time taken for convulsions to occur: a decrease in the time taken for convulsions and death to occur
  Time taken for death to occur: a decrease in the time taken for convulsions and death to occur
[2]; 5 mg/kg daily
  Affected foetuses, number: 0
  Total foetuses (live): 91
  Affected foetuses, %: 0%
[2]; 10 mg/kg daily
  Affected foetuses, number: 0
  Total foetuses (live): 95
  Affected foetuses, %: 0%
Mice [3]
  Overall behavior: observed effects (summary): excitation with hyperreactivity in mice and rats
  Stereotype movements (summary): the presence of stereotype movements in mice and rats
Mice [4]
  Duration of the sleep induced by barbital: a reduction in the duration of the sleep induced by barbital
Mice [5]
  Effect on hypothermic action of oxotremorine: antagonism of the hypothermia
  Effect on trembling induced by oxotremorine: a decrease in the intensity of the trembling caused by oxotremorine
Mice [6]
  Period of immobility due to despair: a decrease in the period of immobility
Mice [7]
  Number of fights / intergroup aggressiveness: at strong doses, a decrease in the number of fights
Mice [8]
  Spontaneous motor activity: an increase in the spontaneous motor activity of mice
Mice [9]
  Effect on convulsant effects of electric shock: at strong doses, a decrease in the convulsant effects of electric shock
  Number of punished passes in the four plate test: an increase in the number of punished passes in the 4 plate test on mice
dogs
  Vasodilator (conclusion): vasodiating properties
Mice [10]
  Motor recovery of mice after hypobaric hypoxia: improvement in the motor recovery
Rats [11]
  Effect on stereotypies induced by amphetamine: potentiation of the stereotypies
Mice [12]
  Motor activity of mice accustomed to their enclosure: resumption in the motor activity of mice accustomed to their enclosure
Mice [13]
  Effect on hypothermia induced by reserpine: antagonism of the hypothermia
  Effect on ptosis induced by reserpine: a decrease in the ptosis induced by reserpine in mice
CNS; conclusion of the tests
  Antidepressant effects (overall): antidepressant and stimulant properties
  Stimulant effects (overall): antidepressant and stimulant properties
  α-adrenergic stimulant effects (overall): an α-adrenergic stimulation component
CNS; species and dose not stated
  Peripheral α-adrenergic signs (mydriasis, salivation, lacrimation, exophthalmos): at strong doses, by a reduction in the mydriasis and salivation
Rats [14]
  Overall behavior: observed effects (summary): excitation with hyperreactivity in mice and rats
  Stereotype movements (summary): the presence of stereotype movements in mice and rats
Mice [15]
  Effect on hypothermia induced by apomorphine: antagonism of the hypothermia
[16]; 0.1 g/liter in distilled water
  pH: 5.0
[16]; 0.2 g/liter in distilled water
  pH: 4.5
[16]; 0.4 g/liter in distilled water
  pH: 4.0
[16]; 0.8 g/liter in distilled water
  pH: 3.5
[16]; 2 g/liter in distilled water
  pH: 3.0
[16]; 3 g/liter in distilled water
  pH: 2.5
[16]; 13 g/liter in distilled water
  pH: 2.0
[16]; 50 g/liter in distilled water
  pH: 1.5
[16]; ≤0.05 g/liter in distilled water
  pH: 5.5
Rats [17]
  Effect on stereotypies induced by apomorphine: potentiation of the stereotypies

— patent US4980377A, “1-(aminophenyl)-2-aminopropanone derivatives” (Laboratoire L. Lafon, priority 1984, dated 1990)
